Test results from patent US9695155B2, “Herbicidal substituted pyrimidinyloxy benzene compounds” (E. I. DU PONT DE NEMOURS AND COMPANY, priority 2013, dated 2017).

How the values were obtained:
kochia = assay: Test C postemergence; assay type: in vivo, Kochia scoparia; conditions: Bassia scoparia, post-emergence
In short: (§1)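 Visual injury score versus untreated controls, 0 = no effect, 100 = complete control, taken 13 to 15 days after treatment in the greenhouse. Pre-emergence pots held loam/sand; post-emergence plants grew in sphagnum peat/vermiculite mix and were sprayed at the 1- to 4-leaf stage.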

johnsongrass = assay: Test C postemergence; assay type: in vivo, Sorghum halepense; conditions: Sorghum halepense, post-emergence
In short: as §1

velvetleaf [1] = assay: Test A preemergence; assay type: in vivo, Abutilon theophrasti
In short: (§2)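 Injury scores run from 0, no effect, to 100, complete control, judged by eye against untreated plants roughly 10 days after treatment. Chemicals carried a surfactant in a non-phytotoxic solvent and went onto loam–sand soil preemergence or onto one- to two-leaf seedlings postemergence.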

oilseed rape = assay: Test C postemergence; assay type: in vivo, Brassica napus; conditions: Brassica napus, post-emergence
In short: as §1

soybean = assay: Test C postemergence; assay type: in vivo, Glycine max; conditions: Glycine max, post-emergence
In short: as §1

giant foxtail = assay: Test A preemergence; assay type: in vivo, Setaria faberii; conditions: Setaria faberi, pre-emergence, 240 h
In short: as §2

corn = assay: Test A postemergence; assay type: in vivo, Zea mays; conditions: Zea mays, post-emergence, 240 h
In short: as §2

velvetleaf [2] = assay: Test C postemergence; assay type: in vivo, Abutilon theophrasti; conditions: Abutilon theophrasti, post-emergence
In short: as §1

velvetleaf [3] = assay: Test A postemergence; assay type: in vivo, Abutilon theophrasti; conditions: Abutilon theophrasti, post-emergence, 240 h
In short: as §2

wheat = assay: Test A preemergence; assay type: in vivo, Triticum aestivum
In short: as §2

waterhemp = assay: Test C postemergence; assay type: in vivo, Amaranthus rudis; conditions: Amaranthus tuberculatus, post-emergence
In short: as §1

blackgrass = assay: Test C postemergence; assay type: in vivo, Alopecurus myosuroides; conditions: Alopecurus myosuroides, post-emergence
In short: as §1

wheat, winter = assay: Test C postemergence; assay type: in vivo, Triticum aestivum; conditions: Triticum aestivum, post-emergence
In short: as §1

pigweed = assay: Test C postemergence; assay type: in vivo, Amaranthus retroflexus; conditions: Amaranthus retroflexus, post-emergence
In short: as §1

ragweed = assay: Test C postemergence; assay type: in vivo, Ambrosia elatior; conditions: Ambrosia artemisiifolia, post-emergence
In short: as §1

morningglory [4] = assay: Test A preemergence; assay type: in vivo, Ipomoea spp.
In short: as §2

galium = assay: Test C postemergence; assay type: in vivo, Galium aparine; conditions: Galium, post-emergence
In short: as §1

morningglory [5] = assay: Test A postemergence; assay type: in vivo, Ipomoea spp.; conditions: Ipomoea, post-emergence, 240 h
In short: as §2

[6] = 125 g ai/ha, 0 to 100 scale where 0 is no effect and 100 is complete control

N#Cc1cccc(Oc2ncc(Cl)cn2)c1-n1cc(Br)cn1 [Compound 52, 2-(4-bromo-1H-pyrazol-1-yl)-3-[(5-chloro-2-pyrimidinyl)oxy]benzonitrile]
pest or weed control at 125 g/ha (kochia; 125 g ai/ha, postemergence, read-out: Plant response rating (0 to 100), Kochia): 90%
pest or weed control at 250 g/ha (kochia; 250 g ai/ha, postemergence, read-out: Plant response rating (0 to 100), Kochia): 95%
pest or weed control at 31 g/ha (kochia; Postemergence, 31 g ai/ha, scale 0 to 100 (0 no effect, 100 complete control), 13 to 15 days, read-out: Plant response rating, Kochia): 75%
pest or weed control at 62 g/ha (kochia; Postemergence, 62 g ai/ha, scale 0 to 100 (0 no effect, 100 complete control), read-out: Plant response rating, Kochia): 90%
pest or weed control at 125 g/ha (johnsongrass; 125 g ai/ha, postemergence, read-out: Plant response rating (0 to 100), Johnsongrass): 5%
pest or weed control at 250 g/ha (johnsongrass; 250 g ai/ha, postemergence, read-out: Plant response rating (0 to 100), Johnsongrass): 10%
pest or weed control at 31 g/ha (johnsongrass; Postemergence, 31 g ai/ha, scale 0 to 100 (0 no effect, 100 complete control), 13 to 15 days, read-out: Plant response rating, Johnsongrass): 5%
pest or weed control at 62 g/ha (johnsongrass; Postemergence, 62 g ai/ha, scale 0 to 100 (0 no effect, 100 complete control), read-out: Plant response rating, Johnsongrass): 5%
Plant response rating, Velvetleaf (velvetleaf [1]; [6]): 100
pest or weed control at 500 g/ha (velvetleaf [1]; Abutilon theophrasti, pre-emergence, 240 h, 500 g ai/ha, 0 to 100 scale, 0 no effect, 100 complete control, approx. 10 days, read-out: Velvetleaf plant response rating): 100%
plant injury at 125 g/ha (oilseed rape; 125 g ai/ha, postemergence, read-out: Plant response rating (0 to 100), Oilseed Rape): 70%
plant injury at 250 g/ha (oilseed rape; 250 g ai/ha, postemergence, read-out: Plant response rating (0 to 100), Oilseed Rape): 85%
plant injury at 31 g/ha (oilseed rape; Postemergence, 31 g ai/ha, scale 0 to 100 (0 no effect, 100 complete control), 13 to 15 days, read-out: Plant response rating, Oilseed Rape): 25%
plant injury at 62 g/ha (oilseed rape; Postemergence, 62 g ai/ha, scale 0 to 100 (0 no effect, 100 complete control), read-out: Plant response rating, Oilseed Rape): 40%
Soybean plant response rating (crop injury, 0-100 scale) at 125 g/ha (soybean; 125 g ai/ha, postemergence, read-out: Plant response rating (0 to 100), Soybean): 95%
Soybean plant response rating (crop injury, 0-100 scale) at 250 g/ha (soybean; 250 g ai/ha, postemergence): 95%
Soybean plant response rating (crop injury, 0-100 scale) at 31 g/ha (soybean; Postemergence, 31 g ai/ha, scale 0 to 100 (0 no effect, 100 complete control), 13 to 15 days): 40%
Soybean plant response rating (crop injury, 0-100 scale) at 62 g/ha (soybean; Postemergence, 62 g ai/ha, scale 0 to 100 (0 no effect, 100 complete control)): 90%
pest or weed control at 125 g/ha (giant foxtail; 125 g ai/ha, 0 to 100 scale where 0 is no effect and 100 is complete control, read-out: Plant response rating, Foxtail, Giant): 100%
pest or weed control at 500 g/ha (giant foxtail; 500 g ai/ha, 0 to 100 scale, 0 no effect, 100 complete control, approx. 10 days, read-out: Foxtail, Giant plant response rating): 100%
Corn plant response rating (crop injury, 0 = no effect, 100 = complete kill) at 125 g/ha (corn; [6]): 90%
plant injury at 500 g/ha (corn; 500 g ai/ha, 0 to 100 scale, 0 no effect, 100 complete control, read-out: Plant response rating Corn): 90%
pest or weed control at 125 g/ha (velvetleaf [2]; 125 g ai/ha, postemergence, read-out: Plant response rating (0 to 100), Velvetleaf): 70%
pest or weed control at 250 g/ha (velvetleaf [2]; 250 g ai/ha, postemergence, read-out: Plant response rating (0 to 100), Velvetleaf): 90%
pest or weed control at 31 g/ha (velvetleaf [2]; Postemergence, 31 g ai/ha, scale 0 to 100 (0 no effect, 100 complete control), 13 to 15 days, read-out: Plant response rating, Velvetleaf): 50%
pest or weed control at 62 g/ha (velvetleaf [2]; Postemergence, 62 g ai/ha, scale 0 to 100 (0 no effect, 100 complete control), read-out: Plant response rating, Velvetleaf): 60%
pest or weed control at 125 g/ha (velvetleaf [3]; 125 g ai/ha, 0 to 100 scale where 0 is no effect and 100 is complete control, read-out: Plant response rating, Velvetleaf): 100%
pest or weed control at 500 g/ha (velvetleaf [3]; 500 g ai/ha, 0 to 100 scale, 0 no effect, 100 complete control, read-out: Plant response rating Velvetleaf): 100%
Plant response rating, Wheat (wheat; [6]): 20
plant injury at 500 g/ha (wheat; Triticum aestivum, pre-emergence, 240 h, 500 g ai/ha, 0 to 100 scale, 0 no effect, 100 complete control, approx. 10 days, read-out: Wheat plant response rating): 80%
pest or weed control at 125 g/ha (waterhemp; 125 g ai/ha, postemergence, read-out: Plant response rating (0 to 100), Waterhemp): 75%
pest or weed control at 250 g/ha (waterhemp; 250 g ai/ha, postemergence, read-out: Plant response rating (0 to 100), Waterhemp): 95%
pest or weed control at 31 g/ha (waterhemp; Postemergence, 31 g ai/ha, scale 0 to 100 (0 no effect, 100 complete control), 13 to 15 days, read-out: Plant response rating, Waterhemp): 70%
pest or weed control at 62 g/ha (waterhemp; Postemergence, 62 g ai/ha, scale 0 to 100 (0 no effect, 100 complete control), read-out: Plant response rating, Waterhemp): 70%
pest or weed control at 125 g/ha (blackgrass; 125 g ai/ha, postemergence, read-out: Plant response rating (0 to 100), Blackgrass): 10%
pest or weed control at 250 g/ha (blackgrass; 250 g ai/ha, postemergence, read-out: Plant response rating (0 to 100), Blackgrass): 25%
pest or weed control at 31 g/ha (blackgrass; Postemergence, 31 g ai/ha, scale 0 to 100 (0 no effect, 100 complete control), 13 to 15 days, read-out: Plant response rating, Blackgrass): 5%
pest or weed control at 62 g/ha (blackgrass; Postemergence, 62 g ai/ha, scale 0 to 100 (0 no effect, 100 complete control), read-out: Plant response rating, Blackgrass): 5%
plant injury at 125 g/ha (wheat, winter; 125 g ai/ha, postemergence, read-out: Plant response rating (0 to 100), Wheat): 5%
plant injury at 250 g/ha (wheat, winter; 250 g ai/ha, postemergence, read-out: Plant response rating (0 to 100), Wheat): 5%
plant injury at 31 g/ha (wheat, winter; Postemergence, 31 g ai/ha, scale 0 to 100 (0 no effect, 100 complete control), 13 to 15 days, read-out: Plant response rating, Wheat): 0%
plant injury at 62 g/ha (wheat, winter; Postemergence, 62 g ai/ha, scale 0 to 100 (0 no effect, 100 complete control), read-out: Plant response rating, Wheat): 0%
pest or weed control at 125 g/ha (pigweed; 125 g ai/ha, postemergence, read-out: Plant response rating (0 to 100), Pigweed): 80%
pest or weed control at 250 g/ha (pigweed; 250 g ai/ha, postemergence, read-out: Plant response rating (0 to 100), Pigweed): 95%
pest or weed control at 31 g/ha (pigweed; Postemergence, 31 g ai/ha, scale 0 to 100 (0 no effect, 100 complete control), 13 to 15 days, read-out: Plant response rating, Pigweed): 60%
pest or weed control at 62 g/ha (pigweed; Postemergence, 62 g ai/ha, scale 0 to 100 (0 no effect, 100 complete control), read-out: Plant response rating, Pigweed): 60%
pest or weed control at 125 g/ha (ragweed; 125 g ai/ha, postemergence, read-out: Plant response rating (0 to 100), Ragweed): 80%
pest or weed control at 250 g/ha (ragweed; 250 g ai/ha, postemergence, read-out: Plant response rating (0 to 100), Ragweed): 95%
pest or weed control at 31 g/ha (ragweed; Postemergence, 31 g ai/ha, scale 0 to 100 (0 no effect, 100 complete control), 13 to 15 days, read-out: Plant response rating, Ragweed): 40%
pest or weed control at 62 g/ha (ragweed; Postemergence, 62 g ai/ha, scale 0 to 100 (0 no effect, 100 complete control), read-out: Plant response rating, Ragweed): 45%
Plant response rating, Morningglory (morningglory [4]; [6]): 90
pest or weed control at 500 g/ha (morningglory [4]; Ipomoea, pre-emergence, 240 h, 500 g ai/ha, 0 to 100 scale, 0 no effect, 100 complete control, approx. 10 days, read-out: Morningglory plant response rating): 100%
pest or weed control at 125 g/ha (galium; 125 g ai/ha, postemergence, read-out: Plant response rating (0 to 100), Galium): 85%
pest or weed control at 250 g/ha (galium; 250 g ai/ha, postemergence, read-out: Plant response rating (0 to 100), Galium): 90%
pest or weed control at 31 g/ha (galium; Postemergence, 31 g ai/ha, scale 0 to 100 (0 no effect, 100 complete control), 13 to 15 days, read-out: Plant response rating, Galium): 60%
pest or weed control at 62 g/ha (galium; Postemergence, 62 g ai/ha, scale 0 to 100 (0 no effect, 100 complete control), read-out: Plant response rating, Galium): 60%
pest or weed control at 125 g/ha (morningglory [5]; 125 g ai/ha, 0 to 100 scale where 0 is no effect and 100 is complete control, read-out: Plant response rating, Morningglory): 100%
pest or weed control at 500 g/ha (morningglory [5]; 500 g ai/ha, 0 to 100 scale, 0 no effect, 100 complete control, read-out: Plant response rating Morningglory): 100%
